pIC50: −log10 of the molar value. Values after ≈ are worked out from the molar mass of the structure shown.
Tests used:
[1] = Solubility in water (at pH=7); assay type: physicochemical
From the text: Test Example 6: Solubility of the Compounds of the Invention in Water (at pH=7)

[2] = In vivo pharmacokinetic experiment in rats (oral); design: species or system SD rats; settings: 5 mg/kg
Procedure: Experimental method: Healthy male SD rats were randomly grouped into 3 rats in each group and given the test compound orally. The rats were fasted for 12 h before the gavage experiment, and drank water freely, and were fed uniformly for 4 h after the administration of the compounds. Before (0 h) and 0.25, 0.5, 1.0, 2.0, 4.0, 6.0, 8.0 and 24 h after the administration of the test compounds, 0.2 mL of blood was collected from the jugular vein at the above set time points and placed in EDTA-K2 tubes, and the whole blood was collected and stored temporarily in an ice-water bath, and then centrifuged at 11,000 rpm for 5 min within 30 min, the plasma was separated, and frozen at −70° C. in a refrigerator for testing.

[3] = test system: IFN-α-induced STAT phosphorylation; assay: IFN-α-induced STAT phosphorylation in human whole blood; assay type: cell-based; settings: for higher anti-inflammatory activity compared to the control BMS-986165: IFN-α-induced STAT phosphorylation in human whole blood, relative to BMS-986165; for pIC50: human whole blood, 20 ng/ml IFN-α, pSTAT5 in CD3-positive cells, read-out: IC50, IFN-α inflammatory pathway (IFN-α-induced STAT phosphorylation)
From the text: The cytokine receptor attached to TYK2 mediates the signaling of type 1 interferon (IFN-α), which has been identified as the most important inflammatory factor of the autoimmune system. Human whole blood is induced with IFN-α, and TYK2 from lymphocytes in whole blood triggered STAT phosphorylation, which mediated subsequent inflammatory signaling. Therefore, TYK2 inhibitors have an inhibitory effect on IFN-α signaling, and the stronger the TYK2 inhibitory activity, the lower the level of STAT phosphorylation, and the stronger the corresponding anti-inflammatory effect.
In this experiment, the ability of the compounds to inhibit IFN-α-induced STAT phosphorylation in human whole blood were tested, and the IC50 values were calculated. The anti-inflammatory activity of the compounds was evaluated at the tissue level and evaluation of the inhibitory activity of compounds on the IFN-α inflammatory pathway based on the IC50 value.
The tested compound, powder and stored at room temperature, prepared into 10 mM stock solution with DMSO and stored at −80° C. in the refrigerator.
1× Fix/Lysis solution preparation: 5× Fix/Lysis and ddH2O were diluted according to 1:4 and preheated in 37° C. incubator, waiting for use.
Flow cytometric staining buffer preparation: 1 g of bovine serum albumin (BSA) and 1 mL of EDTA (0.5 M) solution were added to 500 mL of phosphate buffer solution (PBS) and stored at 4° C. in the refrigerator.
Compound dilution solution: 0.5 g of bovine serum albumin (BSA) was added to 500 mL of phosphate buffer solution (PBS), and stored at 4° C. in the refrigerator.
50 μg/mL IFN-alpha was diluted to 400 ng/mL with Compound Diluent and set aside.
67.5 μL of human whole blood was added to a 96-well plate using a 300 μL electric volley gun. 3.5 μL of prepared test compound was added, mixed well and placed in the cell culture incubator. After 60 min incubation, 400 ng/mL IFN-α (Biolegend 592702, final concentration 20 ng/ml) was added. The obtained was mixed well and placed in the cell culture incubator to continue incubation for 15 min.
After cytokine stimulation, 5 ul of PE-CD3 (BD 555333) antibody was added to each well, mixed and incubation was continued at 4° C. in the refrigerator. At the end, whole blood was transferred to a 96-well deep-well plate using a volley gun, pre-warmed 1× Fix/Lysis solution was added, and cells were lysed and fixed for 12 minutes at 37° C. in an incubator. After being washed, 400 μL of Perm III solution was added, vortexed and incubated on ice for 30 minutes. Cells were then stained by 100 μL of APC-pSTAT5 (1:100) antibody for 50 min at room temperature. This was followed by flow-through instrumentation. The expression of pSTAT5 was quantified by median fluorescence intensity after gating the CD3-positive signaling cluster.

JAK3 = target: T1, JAK3 (Homo sapiens, UniProt P52333, cells depend on it, form not given); assay: JAK family kinase selectivity assay, Ba/F3-TEL-JAK3 cell proliferation; assay type: cell-based; settings: Ba/F3-TEL-JAK3, 72 h; read-out: Ba/F3 Cell IC50 JAK3
T1 construct: fused on or other part: N-terminal part of TEL (ETV6) as oligomerising partner; P41212 (Transcription factor ETV6)
From the text: There are four kinases in the JAK family, respectively TYK2, JAK1, JAK2 and JAK3. JAK family kinase genes were introduced into the wild-type murine B lymphocytes (BaF3), and four BaF3 engineered cell lines were constructed respectively (Ba/F3-FL-TYK2-E957D, Ba/F3-TEL-JAK1, Ba/F3-TEL-JAK2, Ba/F3-TEL-JAK3). The growth and proliferation of these engineered cell lines were not dependent on IL-3, but on exogenously transferred JAK family kinases.
In this experiment, the inhibitory effects of the compounds on the proliferation of four cell types, Ba/F3-FL-TYK2-E957D, Ba/F3-TEL-JAK1, Ba/F3-TEL-JAK2, and Ba/F3-TEL-JAK3 were tested, and apoptosis was detected, and the IC50 values were calculated. The inhibitory activities of the compounds against TYK2, JAK1, JAK2, and JAK3 kinases were evaluated based on the IC50 value, thus assessing the JAK family kinase selectivity of the compounds.
The tested compounds, powder and stored at room temperature, were prepared into 10 mM stock solution with DMSO and stored at −20° C. away from light for use.
Compounds were formulated into dilute solutions which was 1000 times of the final concentration. The compound was prepared into 20-times of final concentration by diluting the compound with culture medium. 2 ul of 1000-times compound was added per well to 98 ul of culture medium.
Cells (provided by Sundia Pharmaceutical Technology (Shanghai) Co., Ltd.) were resuspended and counted using an automated cell counter. The cell suspension was diluted to the desired density based on BaF3 seeding density of 2000 cells per well. Each well was plated with 95 ul of cells and incubated at 37° C. for stable equilibrium. […]
The cell plate was equilibrated to room temperature. […] Detected with SpectraMax Paradigm.
• (1) IC50 was calculated using GraphPad Prism 5. • (2) % Inh=(Max signal-Compound signal)/(Max signal-Min signal)×100. • (3) Max signal was the positive control well with only the same volume of DMSO as the compound. • (4) Min signal was the negative control well with only the culture medium.

T1 sequence (P52333 822-1111 limits assumed, change not shown): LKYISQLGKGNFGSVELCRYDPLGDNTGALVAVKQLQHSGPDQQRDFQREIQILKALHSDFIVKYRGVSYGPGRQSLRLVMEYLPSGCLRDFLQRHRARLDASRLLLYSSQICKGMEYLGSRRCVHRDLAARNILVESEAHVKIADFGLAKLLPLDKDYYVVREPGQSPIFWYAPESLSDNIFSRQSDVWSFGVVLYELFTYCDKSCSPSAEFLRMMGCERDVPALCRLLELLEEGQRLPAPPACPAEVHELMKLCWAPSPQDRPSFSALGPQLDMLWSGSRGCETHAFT

[2H]C([2H])([2H])NC(=O)c1nnc(NC(=O)C2CC2)cc1Nc1nc(N)c(Cl)cc1[S@@](C)(=O)=NC [Example 28]
Solubility [1]: 22 µg/mL (≈ 48.3 µM) | AUC [2]: 2644 ngh/mL | F [2]: 103.8% | Cmax ([2]; male, SD, rat, plasma): 651 ng/mL | MRT ([2]; male, SD, rat, plasma): 3.54 h | half-life ([2]; male, SD, rat, plasma): 2.48 h | higher anti-inflammatory activity compared to the control BMS-986165 [3]: about 6 fold | pIC50 [3]: 8.40 | GI50 (JAK3): > 1000 nM

[2H]C([2H])([2H])NC(=O)c1nnc(NC(=O)C2CC2)cc1Nc1nc(N)c(Cl)cc1[S@](C)(=N)=O [Example 29, (R)-4-((6-amino-5-chloro-3-(S-methylsulfoximino)pyridin-2-yl)amino)-6-(cyclopropylcarboxamido)-N-(methyl-d3)pyridazine-3-carboxamide]
higher anti-inflammatory activity compared to the control BMS-986165 [3]: about 6 fold | pIC50 [3]: 8.43 | GI50 (JAK3): > 1000 nM

— patent publication US20250179022A1, “COMPOUND USED AS TYK2 INHIBITOR, PREPARATION METHOD THEREFOR, AND PHARMACEUTICAL USE THEREOF” (SHANGHAI ZHIGEN PHARMACEUTICAL & TECHNOLOGY CO. LTD., priority 2022, published 2025)
